Assay results published in US8530680B2, “System and method for controlling growth of microorganisms with brominated furanones” (Syracuse University, priority 2008, dated 2013).
Entries after “also recorded” stand apart in the source; their conditions may differ.

Experiments:
[1] = tested on: Chaetomium globosum CG572; test: Fungal growth on MEA plates with furanone; type: cell-based; design: key to growth on plate, CG572: −: No growth was observed; +: normal growth was seen; details: for growth on plate, CG572: 60 μg/mL, 7 days at 30° C.; for growth inhibition test, inhibitory concentration, CG572: tested at 1, 5, 30, 60 μg/mL, 7 days
Procedure: (§1) This Example examines the effect of brominated furanones on the growth of fungi associated with damage to building material. Six fungal strains were the subject of these experiments; Gloeophyllum trabeum (strains GT598 and GT599), Chaetomium globosum (wildtype strain and CG572), and Trametes versicolor (strains TV7B2-59 and TV57MAD277). The species were developed on 2% Malt-Extract Agar (MEA) plates and stored inverted at 4° C. The stocks were refreshed by streaking new plates every two months.
(§2) The brominated and non-brominated furanones were added to MAE agar plates at different concentrations. The brominated furanones were dissolved in either ethanol (“EtOH”) or methanol (“MeOH”) as stock solutions, as shown in Table 5. The non-brominated furanones were purchased from Sigma (St. Louis, Mo.). The furanone stocks were stored at 4° C.
(§3) MAE agar plates containing the same amounts of ethanol/methanol were also prepared as negative controls to eliminate any solvent effects. The plates were prepared using either 90 mm or 60 mm petri dishes and were stored inverted at 4° C. until use.
(§4) Different concentrations of furanones were studied to compare their antifungal activities. The plates were inoculated with the six fungal strains using a platinum loop and were incubated upside down at 30° C. for 7 days to monitor the growth. The initial screening was performed using a single 60 μg/mL furanone concentration.

[2] = tested on: P. aeruginosa strain PAO1; test: Microplate based planktonic growth assay of P. aeruginosa; type: cell-based, Pseudomonas aeruginosa; details: for reduction of specific growth rate compared to furanone-free control: planktonic growth
Procedure: The antimicrobial activities of furanones on the planktonic growth of P. aeruginosa strain PAO1 was examined using a microplate based growth assay. An overnight culture of the strain grown in LB medium at 30° C. was used to inoculate M63 minimal medium supplemented with furanones at 0, 30 or 60 μg/mL to an optical density at 600 nm (OD600) of 0.05 in 96-well plates. The plates were then incubated at 30° C. with shaking at 200 rpm. The reading of OD600 was measured every 60 minutes for six hours using a microplate reader (ELx808, BioTek Instruments). Six replicates were tested for every sample. The synthesis of the brominated furanones, the structures of which are shown in FIGS. 1A and 1B, was according to Example 1.

[3] = tested on: Trametes versicolor strain TV7B2-59; test: Fungal growth on MEA plates with furanone; type: cell-based; design: key to growth on plate, TV7B2-59: −: No growth was observed; +: normal growth was seen; details: for growth on plate, TV7B2-59: 60 μg/mL, 7 days at 30° C.; for growth inhibition test, inhibitory concentration, TV7B2-59: tested at 1, 5, 30, 60 μg/mL, 7 days
Procedure: as §1, §2, §3, §4

[4] = tested on: Gloeophyllum trabeum strain GT599; test: Fungal growth on MEA plates with furanone; type: cell-based; design: key to growth on plate, GT599: −: No growth was observed; +: normal growth was seen; details: for growth on plate, GT599: 60 μg/mL, 7 days at 30° C.; for growth inhibition test, inhibitory concentration, GT599: tested at 1, 5, 30, 60 μg/mL, 7 days
Procedure: as §1, §2, §3, §4

[5] = tested on: Trametes versicolor strain TV57MAD277; test: Fungal growth on MEA plates with furanone; type: cell-based; design: key to growth on plate, TV57MAD277: −: No growth was observed; +: normal growth was seen; details: for growth on plate, TV57MAD277: 60 μg/mL, 7 days at 30° C.; for growth inhibition test, inhibitory concentration, TV57MAD277: tested at 1, 5, 30, 60 μg/mL, 7 days
Procedure: as §1, §2, §3, §4

[6] = tested on: Candida albicans strain SC5341; test: C. albicans growth curves in SD medium with furanones (96-well plates, OD600); type: cell-based; details: tested 2.5, 5, 10, 20 μg/mL
Procedure: To evaluate the effects of furanones on fungal growth, C. albicans was grown in a synthetic dextrose (“SD”) medium supplemented with 0, 2.5, 5, 10, or 20 μg/mL of one of eight different brominated furanones and […] furanones (BF1, BF8, BF9, BF11, BF12, BF14, NF1, NF2, or NF3).
The Candida albicans strain SC5341 used in this study was provided by Dr. Sean Palecek from the University of Wisconsin-Madison. C. albicans was routinely grown overnight at 30° C. and shaken at 200 rpm in a SD medium containing 0.67% (wt/vol) yeast nitrogen base without amino acids and 2% (wt/vol) dextrose, which was buffered with 0.165 M morpholinepropanesulfonic acid (MOPS, Sigma), and pH-adjusted to 7.0 with solid NaOH. The overnight culture was then sub-cultured in 25 mL of fresh SD medium to an initial optical density at 600 nm (OD600) of 0.005 and grown till the OD600 reached 1.0. The OD600 values were measured using a Spectronic GENESYS 5 UV-Vis spectrophotometer (Thermo Fisher Scientific®, Waltham, Mass.). This culture was used to inoculate sterile 96-well plates (Costar® No. 9017, Corning®, Corning, N.Y.) containing SD medium supplemented with furanones at different concentrations (0, 2.5, 5, 10, 20 μg/mL) to an OD600 of 0.06 in at least duplicates. The BF1, 8, 9, 11, 12, 14 and NF1-3 compounds were dissolved in ethanol at a concentration of 20 mg/mL. The BF10 compound was dissolved in methanol at a concentration of 20 mg/mL. The amounts of methanol and ethanol were adjusted to be the same for each sample to eliminate the effects of solvents. The samples were then incubated at 30° C. with shaking at 200 rpm, and the OD600 in each well was measured at 0, 4, 7, 17, and 42 hours after inoculation, using an ELx808™ Absorbance Microplate Reader (BioTek Instruments® Inc., Winooski, Vt.).

E. coli = E. coli growth inhibition (results not shown); type: cell-based; details: at / up to 60 μg/mL
C. albicans = C. albicans viability assay based on colony-forming unit (CFU) counting; type: cell-based, Candida albicans; details: 60 μg/mL, 6 hours in 0.85% NaCl buffer
Procedure: To further examine the effect of brominated furanones on fungal growth and understand whether BFs are fungicidal agents to C. albicans, BF1 was used as the representative compound in a viability assay based on colony-forming unit (“CFU”) counting. An overnight culture of C. albicans was sub-cultured in 100 mL of SD medium to an initial OD600 of 0.005 and was grown for 24 hours. The cells were then harvested by centrifugation at 4,500 rpm for 5 minutes at room temperature and washed twice with 0.85% NaCl buffer. Then the cells were resuspended in 0.85% NaCl buffer and supplemented with 0, or 60 μg/mL BF1, BF8, BF9, BF10, BF11, BF12, or BF14 to an OD600 of 2.0 using 17×100-mm polystyrene test tubes (Fisher Scientific). After incubation at 30° C. for 6 hours with shaking at 200 rpm, the treated cells were spread on Yeast Extract Peptone Dextrose (YPD) plates containing 20 g/L peptone, 10 g/L yeast extract, 20 g/L dextrose and 15 g/L agar. The colony-forming units (CFUs) on the plates were counted after 24 hours of incubation at 30° C. to evaluate the killing of C. albicans by furanones. Duplicate samples for each furanone were tested and five agar plates were counted for each sample.

Row | Structure (SMILES) | growth on plate, CG572 [1] | growth inhibition test, inhibitory concentration, CG572 [1] [µg/mL] | inhibitory effect on planktonic growth ([2]; 30 μg/mL) | inhibitory effect on planktonic growth ([2]; 30 and 60 μg/mL (up to 60 μg/mL)) | growth on plate, TV7B2-59 [3] | growth inhibition test, inhibitory concentration, TV7B2-59 [3] [µg/mL] | growth on plate, GT599 [4] | growth inhibition test, inhibitory concentration, GT599 [4] [µg/mL] | growth on plate, TV57MAD277 [5] | growth inhibition test, inhibitory concentration, TV57MAD277 [5] [µg/mL] | lowest concentration showing growth inhibition [6] [µg/mL] | growth inhibition of E. coli (E. coli) | reduction of CFU (C. albicans) [%] | reduction of specific growth rate compared to furanone-free control ([2]; 60 μg/mL) [%] | reduction of specific growth rate compared to furanone-free control ([2]; 30 μg/mL) [%]
1 | CC1=C(Br)/C(=C/Br)OC1=O [BF8, 4-bromo-5Z-(bromomethylene)-3-methylfuran-2-one] | − | 30 | did not exhibit significant inhibitory effects | did not inhibit; also recorded: no apparent effect | − | 30 | − | 5 | − | 30 | 5 | did not inhibit | 50 |  | 
2 | CCCCC1=C(Br)/C(=C/Br)OC1=O [BF1, 4-bromo-5Z-(bromomethylene)-3-butylfuran-2-one] | − | 30 |  |  | − | 5 | − | 30 | − | 5 | 20 |  |  |  | 
3 | O=C1OC(=C(Br)Br)C=C1C(Br)Br [BF10, 3-(dibromomethyl)-5-(dibromomethylene)furan-2-one] | − | 30 | did not exhibit significant inhibitory effects |  | − | 30 | − | 30 | − | 5 | 20 |  | 100 | 10 | 
4 | CC1=CC(=C(Br)Br)OC1=O [BF9, 5-(dibromomethylene)-3-methylfuran-2-one] | − | 60 |  |  | − | 5 | − | 60 | − | 5 | 20 | does not inhibit |  | 42.7 | 29.3
